In patent publication US20090074885A1, “Reversible Hydrophobic Modification of Drugs for Improved Delivery to Cells” (Roche Madison Inc., priority 2003, published 2009):

Assays:
[1] = Qualitative 90° light scattering for particles; format: physicochemical; settings: relative to ITG or PI in ITG
Protocol: Light Scattering analysis of prodrugs. Particle size was determined by dynamic light scattering on a Zeta Plus (Zeta Potential Analyzer, Brookhaven Instrument Corporation, λ 533 nm, 90°), and results are reported as the size of the most abundant particle (range of particle sizes, counts sec^−1). Fluorescent compounds were also analyzed for particles qualitatively, by measuring for light scattering on a Cary Eclipse Fluorescence Spectrophotometer (Varian Inc.), with λex=λem (300-800 nm, 90° detection). The presence of particles in solution results in an increase in signal detection at 90°. PI and RRH-PI prodrugs were 7.48 mM in DMSO. Melphalan and V were 50 mM in DMSO. The drug/prodrug solutions were mixed and diluted with ITG through the mixing chamber (40 μl OS and 400 μl ITG), and analyzed immediately.

Jurkat cells = test: Flow cytometry of prodrug delivery to Jurkat cells; format: cell-based, human
Protocol: For experiments conducted on Jurkat cells (8.0×10^5 cells/ml in media), the cells were isolated by centrifugation and resuspended in ITG at a density of 4.0×10^6 cells/ml. Exposure to the drug/prodrug was conducted by passing the cells in suspension in ITG (200 μl) through the mixing chamber. After 30 sec the cells were centrifuged and the drug solution was removed (aspirated), the cells were resuspended in complete media (2 ml) and plated in 6-well plates for imaging. Passing the cells through the mixing chamber (no drug/prodrug treatment) had no effect on cell viability when compared to cells plated without passing through the mixing chamber.
Flow cytometry was conducted on a FacsCalibur Flow Cytometer (Becton Dickinson Biosciences). Jurkat cells were isolated and treated with PI and II as previously described. After 4 min the cells were centrifuged and the drug solution was removed (aspirated) and 1 ml complete media was added to the cells. During analysis, PI was added to control cells (1 ml of 8.0×10^5 cells/ml in complete media, 1 drop of 1 mg/ml PI solution, no OS or mixing chamber) to determine normal cell senescence. Data were collected for a total of 10,000 events using Cell Quest™ (Becton Dickinson Biosciences), and analyzed with FlowJo (Tree Star Inc.) for single cell events (approximately 80% of events), and secondly for PI. For Jurkat cells treated with II, forward scatter was analogous to control cells, while side scatter increased approximately two fold. Reported data represents a histogram of PI intensity for single cell events from four independent preparations. Cells were considered PI positive at a value of 100 on the PI intensity axis of the histogram for the cell percentages described.

[2] = system: MC38 metastases and hepatic cells; test: Portal vein injection in tumor-bearing mice; format: in vivo, mouse
Protocol: For intraportal injections both the portal vein and the celiac artery were clamped to occlude blood flow into the liver. In other experiments, the portal vein and the celiac artery were not clamped, preserving full portal blood flow during the experiment. In all cases, the vena cava was not clamped in order to avoid increased pressure within the liver during the injection procedure. For experiments with occluded blood flow, the blood in the liver was flushed out with 1 ml of ITG delivered through the portal vein (1 min). Then 0.300 μmol of PI or II in 40 μl of DMF was delivered together with 400 μl of ITG via the mixing chamber. Five min after injection the livers were perfused with 3 ml of ITG to flush any drug remaining in the vasculature, and livers were sectioned as above or the hepatocytes were isolated.

[3] = system: Jurkat (human T-lymphocyte) cells; test: In vitro cellular uptake by fluorescence microscopy, Jurkat; format: cell-based; settings: FIG. 5B
Protocol: In Vitro cellular uptake of PI, RRH-PI compounds, and IV evaluated by fluorescence measurements. […] Adherent cells were plated at 2.5×10^5 cells/well on 6-well plates 24 h prior to testing. The growth media was removed from individual wells and the drug/prodrug was immediately added to the well with the mixing chamber. […] After 30 sec the drug solution was removed (aspirated) and 2 ml complete media was added to the cells. Experiments conducted with prodrug that was hydrolyzed prior to application to the cells followed a similar protocol, however the combined solution obtained after passing through the mixing chamber was collected and allowed to sit at ambient temperature for 5 min prior to application on the cells. Experiments conducted with Calcein AM (Invitrogen, 100 μl of 20 μM solution in complete media) followed a similar protocol for drug treatment (4 min treatment). Experiments conducted with SYTOX Green (Invitrogen) followed a similar protocol for drug treatment. […] Each condition was repeated in 2 or 3 wells, and the cells were immediately examined by microscopy. Fluorescent microscopy studies were conducted with a three laser LSM 510 confocal microscope, an Axiovert S100 fluorescent microscope, or an Axioplan2 fluorescent microscope (all Zeiss) equipped with filter sets for the rhodamine fluorescence channel (λex=BP 450/12, λem=LP 590 nm filter set) and the fluorescein fluorescent channel (λex=BP 546/90, λem=LP 515 nm filter set). Imaging was performed with an AxioCam digital camera (Zeiss), with AxioVision imaging software (V 4.5, Zeiss). For all images, identical camera settings and exposure times were used on comparative sample and control images. Images were processed with Photoshop (Adobe) for level and brightness using identical settings between sample and control images. For experiments conducted on Jurkat cells (8.0×10^5 cells/ml in media), the cells were isolated by centrifugation and resuspended in ITG at a density of 4.0×10^6 cells/ml. Exposure to the drug/prodrug was conducted by passing the cells in suspension in ITG (200 μl) through the mixing chamber. […]

[4] = cells suspended in ITG passed through mixing chamber with drug in DMSO
[5] = portal vein and celiac artery clamped (occluded blood flow)

Structure (SMILES) | increase in 90° light scattering signal intensity [1] | PI positive cells (signal above 100) (Jurkat cells; [4]) [%] | PI labeling after portal vein injection [2, 5] | PI labeling after portal vein injection ([2]; preserved portal blood flow) | PI labeling after portal vein injection ([2]; preserved portal blood flow, listed as BDMODS-PI) | cellular uptake and staining [3] | PI positive cells (signal above 100) (Jurkat cells; PI in aqueous solution, no OS, no mixing chamber (control)) [%] | nuclear staining after portal vein injection ([2]; 400 μl into portal vein of liver with MC38 metastases) | cells stained [3] [%]
CCCCCCCCCCCCCCCCCC[Si](C)(C)Nc1ccc2c(c1)c(-c1ccccc1)[n+](CCC[N+](C)(CC)CC)c1cc(N[Si](C)(C)CCCCCCCCCCCCCCCCCC)ccc21.[I-].[I-] [II, 3,8-bis[((dimethyl)octadecylsilazyl)amine] 5-(3,3-diethyl-3-methylammoniumpropyl) 6-phenyl phenanthridinium diiodide] | maximum two fold increase | 99.5±0.1 | prominent labeling of portal structures and adjacent cells, including hepatocytes, but not of the metastases | all metastases were PI-negative | No labeled cells in MC38 metastases | – | – | – | –
CC[N+](C)(CC)CCC[n+]1c(-c2ccccc2)c2cc(N)ccc2c2ccc(N)cc21.[I-].[I-] [PI, Propidium iodide, reference compound] | – | 8.4±0.6 | a few labeled cells | – | – | stained very few cells | 0.3±0.1 | did not result in nuclear staining of any structures | –
CCCCCCCCCCCCNC(=O)CCC(=CCC(=O)O)C(=O)Nc1ccc2c(c1)c(-c1ccccc1)[n+](CCC[N+](C)(CC)CC)c1cc(NC(=O)C(=CCC(=O)O)CCC(=O)NCCCCCCCCCCCC)ccc21.[I-].[I-] [III, 3,8-bis-[2-(2 carboxyethylidene)-4-(dodecarbamoyl)-1-oxo-butylamine] 5-(3,3-diethyl-3-methylammoniumpropyl) 6-phenyl phenanthridinium diiodide] | maximum two fold increase | – | – | – | – | strong cellular uptake and staining | – | – | ~100
